Common to all, as to format: cell-based
One experiment deals with Candida parapsilosis. The procedure: (§1) The minimum inhibitory concentration (MIC) value is defined as the lowest sample concentration that inhibited growth. In the Examples, the MIC90 value is presented, which MIC90 values are determined according to established methods known to the person with the skills in the relevant art. Experiments; 1×10E5 CFU of various strains/ml were incubated for 24-48 h at 37° C. in 4× diluted medium of RPMI 1640 with the indicated concentrations of antimicrobial peptide hLF(1-11) [SEQ ID NO: 3]. As controls various strains cells were incubated for 24-48 h at 37° C. with no agent (antimicrobial peptide), and subsequently, growth of the microbial organism (e.g. yeast, bacterium) was monitored by using spectrophotometry with a spectrophotometer at 620 nm. […] ND=Not done. Representative single assay data are listed rather than a range, for clarity reasons and for ease of comparison of peptide efficacy. The MIC was calculated as the lowest antibiotic (antimicrobial peptide) concentration at which growth of the assessed yeast or bacterium (microbe) was inhibited (inhibitory concentration IC90).
For 3 patients A, B, C who were treated with the low concentration of antimicrobial peptide, and for which now clinical improvement was established, it was established that one patient presented with a positive culture (Candida parapsilosis). […] See also Tables 1-3 in Example 4, here below. […]

In experiment [1] the test system is Trichophyton interdigitalis. The procedure:
as §1
(§2) For two patients D, E who were treated with a solution comprising the high concentration of the antimicrobial peptide, in their nail samples strains of Trichophyton interdigitalis and Hypercrealis spp. were determined. […]

The test system of a further experiment is Hypercrealis spp. Conditions: Hypercrealis spp. strain from nail samples of patients D, E. The procedure:
as §1, §2

No end group written: not given here.

Results on 1 sequence are retold here after patent US20250127863A1, “ANTIMICROBIAL PEPTIDE FOR ONYCHOMYCOSIS” (CBMR SCIENTIFIC NANOSCIENCE B.V., priority 2019, published 2025).

As for “GRRRRSVQWCA [hLF1-11, Gly Arg Arg Arg Arg Ser Val Gln Trp Cys Ala]”, the MIC90 value against Candida parapsilosis was 25 to 50 µg/mL; in experiment [1], 50 µg/mL; in the experiment with Hypercrealis spp., 50 µg/mL.
